Test results from PMC12520537, “A Multi‐Property Optimizing Generative Adversarial Network for de novo Antimicrobial Peptide Design” (Advanced Science, 2025).
Like-named read-outs stand apart in the source and are kept apart here. Ends that are not written are not given here.

Key:
MC3T3-E1 cells = type: cell-based, mouse
Text: (§1) The assessment of cytotoxicity primarily relies on alterations in cell membrane permeability. To evaluate the cytotoxicity of AMPs, we employed the Cell Counting Kit‐8 (CCK‐8) assay, which is widely recognized as one of the most frequently used methods for assessing cytotoxicity. The CCK‐8 assay utilizes WST‐8 [2‐(2‐Methoxy‐4‐nitrophenyl)‐3‐(4‐nitrophenyl)‐5‐(2,4‐disulfophenyl)‐2H‐tetrazolium Sodium Salt] for rapid detection based on the principle that intracellular dehydrogenase‐mediated biological reduction of WST‐8 generates an orange formazan dye. This dye can dissolve in the medium, and its quantity is directly proportional to the number of viable cells. For the cytotoxicity test, 2 000 MC3T3‐E1 cells or CH3 cells were seeded into each well of 96‐well plates and cultured in DMEM medium containing 10% FBS and 1% penicillin‐streptomycin at 37 °C and 5% CO2overnight. Then the culture medium was removed, and the AMPs at the various concentrations in the media were added to each well. The cells were further incubated for 48 h, followed by the addition of […] of CCK‐8 and subsequent incubation for 1 h. The absorbance of the solution was measured at 450 nm by a microplate reader. The cell viability was calculated as follows (A represents absorbance): (11) %Cell viability=Asample−Ablank/Anegative−Ablank×100
The data were plotted as AMP concentration versus the percentage of living cells using GraphPad Prism 8.0.

S. aureus BNCC186335 = type: cell-based; settings: BNCC186335, 18 h
Protocol: (§2) The antimicrobial activity of the synthesized AMPs was evaluated against several strains, including E. coli BL21(DE3), S. aureus BNCC186335, B. subtilis BNCC109047, and drug‐resistant strains such as E coli XJ13000957, E. coli XJ13022488, E. coli XJ19025100, E. coli XJ22006301, and MRSA ATCC43300. All strains are stored at ‐80°C and, before testing, were transferred into fresh Mueller‐Hinton Medium and incubated for 24 h at 37°C. Fresh cultures were used for the antimicrobial assays. The MIC values were determined using the broth microdilution method according to the Clinical and Laboratory Standards Institute (CLSI) protocol. Initial bacterial inoculums (5× 10^5 colony forming units (CFU)/mL) in Mueller‐Hinton Broth were exposed to varying concentrations of the compounds (0.5‐512 µg/mL) and incubated for 18 h at 37°C. The experiments are conducted on 96‐well microtiter plates with a final volume of 100 µL. The MIC was defined as the lowest concentration of the compound that inhibits visible bacterial growth. Additionally, the MBC was evaluated. After determining the MIC, samples from the MIC well and two higher concentrations are plated on agar plates. The MBC was recorded as the lowest concentration at which no visible bacterial colonies were observed. All experiments were performed in triplicate, with positive controls (ensuring proper bacterial growth) and negative controls (ensuring sterility) included.

B. subtilis BNCC109047 = type: cell-based; settings: BNCC109047, 18 h
Protocol: as §2

E. coli BL21(DE3) = type: cell-based; settings: BL21, 18 h
Protocol: as §2

human red blood cells = type: cell-based; settings: 3 h
Protocol: Anticoagulant whole blood was diluted with PBS at a ratio of 1:1 and subsequently centrifuged at 1500×g for 10 minutes. The supernatant and white blood cell layer were discarded, while the red blood cells were washed three times with PBS until the supernatant became colorless and transparent. A 2% red blood cell suspension was then prepared using PBS. For the positive control, 0.2 mL of 1% Triton X‐100 was mixed with 0.8 mL of the red blood cell suspension. The negative control consisted of 0.2 mL of PBS combined with 0.8 mL of the red blood cell suspension. In the experimental group, 0.2 mL of MPOP‐03 (prepared at gradient concentrations) was added to 0.8 mL of the red blood cell suspension. Three replicates were prepared for each group. All samples were incubated at 37°C in a constant temperature water bath for 3 hours. Following incubation, the samples were centrifuged at 1500×g for 5 minutes, and the supernatants were carefully aspirated and transferred to new centrifuge tubes. The optical density values of the samples were measured at a wavelength of 524 nm using a microplate reader. The hemolysis ratio was calculated as follows (A represents absorbance): (12) %Hemolysis ratio=Asample−Anegative/Apositive−Anegative×100

E. coli XJ19025100 = type: cell-based; settings: XJ19025100, 18 h
Protocol: as §2

[1] = tested on: bone marrow mesenchymal stem cells CH3; type: cell-based
Text: as §1, with “viability=Asample−Ablank/Anegative−Ablank×100 […]” for “viability=Asample−Ablank/Anegative−Ablank×100”

Row | Sequence | CC50 (MC3T3-E1) (MC3T3-E1 cells) [µg/mL] | MIC S. aureus (S. aureus BNCC186335) [µg/mL] | MIC B. subtilis (B. subtilis BNCC109047) [µg/mL] | MIC E. coli (E. coli BL21(DE3)) [µg/mL] | CC50 for MC3T3-E1 (MC3T3-E1 cells; 48 h) [µg/mL] | HC50 (concentration required to induce 50% hemolysis of red blood cells) (human red blood cells) [µg/mL] | MIC against E. coli XJ19025100 (E. coli XJ19025100) [µg/mL] | CC50 for CH3 [1] [µg/mL] | CC50 for CH3 ([1]; 48 h) [µg/mL]
1 | VMKRIGTILSGLHSLLSKIF [MPOP-05] | 28 | 4 | 4 | 32 |  |  |  |  | 
2 | IKGIIKTIKKMASHFLHSAS [MPOP-09] | 118 | 8 | 8 | 16 |  |  |  |  | 
3 | DPFGIMSKLQQFIRKFYQSLKHLKT [MPOP-01] | 24 | 4 | 8 | 128 |  |  |  |  | 
4 | GLFDVIKKIAEMVSNGYHTVKKKF [MPOP-08] | 24 | 4 | 4 | 32 |  |  |  |  | 
5 | LHQIKSVIKTAMNVLSGLFSAIKKK [MPOP-02] | 15 | 4 | 4 | 32 |  |  |  |  | 
6 | GGGGMLKYFKTAIHTIKKIGQKIVN [MPOP-04] | 22 | 4 | 4 | 16 |  |  |  |  | 
7 | GIGKFLHSFTKFFSKIMNAIR [MPOP-07] | 35 | 4 | 4 |  |  |  |  |  | 
8 | KLFRVVKKMFHSVFSSIHKYFR [MPOP-06] | 20 | 8 | 8 | 32 |  |  |  |  | 
9 | IGSFKHVFKRITSMAKAIR [MPOP-10] |  | 32 | 32 | 256 |  |  |  |  | 
10 | MSKFKHFFNAVKSIFRGLTK [MPOP-03] | 85 |  | 2 |  | 84.96 | 256 | ≤ 8 | 32.47 | 34.27
